These results are taken from patent EP0710486A1, “REMEDY FOR URINATION DISORDER ACCOMPANYING PROSTATIC HYPERTROPHY” (YAMANOUCHI PHARMACEUTICAL CO. LTD., priority 1993, dated 1995).

Data set [1] deals with T1, bovine α1C-receptor subtype (Bos taurus, UniProt P18130).
T1 construct: pBCα1c which contains the entire coding region of bovine α1C receptor subtype; expressed in transfected cells; host or cells: COS-7 cells, transient expression, membrane preparation
T1 sequence (P18130 1-466): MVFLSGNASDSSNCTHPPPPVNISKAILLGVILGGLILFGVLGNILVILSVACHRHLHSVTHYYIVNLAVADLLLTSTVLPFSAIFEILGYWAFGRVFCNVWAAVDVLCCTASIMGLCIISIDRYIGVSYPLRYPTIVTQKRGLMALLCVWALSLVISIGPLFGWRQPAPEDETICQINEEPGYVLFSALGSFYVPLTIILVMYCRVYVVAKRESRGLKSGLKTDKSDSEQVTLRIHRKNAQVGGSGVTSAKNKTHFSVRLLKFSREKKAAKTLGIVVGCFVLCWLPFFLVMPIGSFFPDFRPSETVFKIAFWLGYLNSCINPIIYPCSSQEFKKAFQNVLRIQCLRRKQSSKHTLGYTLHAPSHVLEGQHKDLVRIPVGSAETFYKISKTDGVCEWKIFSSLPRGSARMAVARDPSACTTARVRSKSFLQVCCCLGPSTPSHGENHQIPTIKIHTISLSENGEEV
The data set can be described thus: Competitive binding experiment against [³H] prazosin, transfected COS-7 cell membranes.

The conditions of data set [2]: human clinical tests (K. Kawabe et al., J. Urol., 1990); cited from earlier work.
Data set [3] deals with T2, rat α1B-receptor subtype (Rattus norvegicus, UniProt P15823).
T2 sequence (P15823 1-515): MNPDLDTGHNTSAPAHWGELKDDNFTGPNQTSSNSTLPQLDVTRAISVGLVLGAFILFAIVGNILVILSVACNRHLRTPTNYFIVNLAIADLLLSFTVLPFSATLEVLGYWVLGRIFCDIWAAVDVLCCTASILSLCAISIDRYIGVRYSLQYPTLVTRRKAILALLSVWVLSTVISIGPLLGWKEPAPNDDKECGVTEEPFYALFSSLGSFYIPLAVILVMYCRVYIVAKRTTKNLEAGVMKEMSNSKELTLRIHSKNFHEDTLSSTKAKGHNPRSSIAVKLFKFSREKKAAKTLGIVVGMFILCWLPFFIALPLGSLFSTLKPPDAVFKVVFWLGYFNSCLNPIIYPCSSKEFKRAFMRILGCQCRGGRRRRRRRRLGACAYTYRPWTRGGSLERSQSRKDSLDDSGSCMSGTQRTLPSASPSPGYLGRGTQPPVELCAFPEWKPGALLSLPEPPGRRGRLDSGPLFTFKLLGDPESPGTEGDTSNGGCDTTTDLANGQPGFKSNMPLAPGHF
The data set can be described thus: Competitive binding experiment against [³H] prazosin, transfected COS-7 cell membranes. Also noted: pcDV1Rα1B which contains a 2573 bp fragment containing the entire coding region of α1B receptor subtype cDNA; expressed in transfected cells; host or cells: COS-7 cells, transient expression, membrane preparation. On the procedure:
(§1) After 4 days of the transfection, these cells were again suspended in an ice-cold buffer for binding experiment (50 mmol/l Tris, 0.5 mmol/l EDTA, pH 7.5) and homogenized using Tissumeizer for 10 seconds at a maximum speed and then twice for 20 seconds at 2/3 speed. The thus obtained homogenate was centrifuged at 50,000 g for 20 minutes, and the resulting pellet was again suspended in the buffer for binding experiment to a concentration of 0.5 to 2 mg/ml.
(§2) This incubation was terminated by quick filtration under a reduced pressure using Whatman GF/C filter paper. Non-specific binding was defined as binding in the presence of 10 µmol/l of phentolamine. […] The protein content was determined in accordance with the Bradford method using bovine IgG as an standard. In the competitive binding experiment, each compound was evaluated by 3 to 4 tests using at least two separate batches of transfected cells.
(§3) The result was shown as the average value ± SEM of n times of tests.

The target of data set [4] is T3, rat α1A/D-receptor subtype (Rattus norvegicus, UniProt P23944).
T3 sequence (P23944 1-561): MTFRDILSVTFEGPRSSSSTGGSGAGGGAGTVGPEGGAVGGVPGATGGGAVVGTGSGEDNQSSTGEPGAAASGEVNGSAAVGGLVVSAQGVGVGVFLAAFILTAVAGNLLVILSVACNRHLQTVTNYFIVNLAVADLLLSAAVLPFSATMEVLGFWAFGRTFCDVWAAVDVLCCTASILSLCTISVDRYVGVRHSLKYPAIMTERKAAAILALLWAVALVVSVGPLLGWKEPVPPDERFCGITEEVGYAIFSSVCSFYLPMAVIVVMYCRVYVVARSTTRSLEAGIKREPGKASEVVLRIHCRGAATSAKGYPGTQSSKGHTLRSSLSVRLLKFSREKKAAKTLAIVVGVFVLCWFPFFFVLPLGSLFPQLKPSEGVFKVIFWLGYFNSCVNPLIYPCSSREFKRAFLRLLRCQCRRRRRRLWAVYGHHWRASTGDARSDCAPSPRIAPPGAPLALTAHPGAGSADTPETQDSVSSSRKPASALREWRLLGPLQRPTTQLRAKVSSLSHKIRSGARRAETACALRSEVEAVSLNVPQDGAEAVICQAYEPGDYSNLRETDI
The note with it: average ± SEM, n=8. The protocol:
as §1, §2, §3

Data set [5] addresses T2, rat α1B-receptor subtype. Conditions: average ± SEM, n=5. On the procedure:
as §1, §2, §3

Where [6] appears, read: read-out: negative logarism values (-log values) of Ki values (converted).

Where two headings read alike, the source gives them in different places.

In data set [1], `CCOc1ccccc1OCCN[C@H](C)Cc1ccc(OC)c(S(N)(=O)=O)c1` [Compound A, R(-)-5-[2-[[2-(o-ethoxyphenoxy)ethyl]amino]propyl]-2-methoxybenzenesulfonamide] showed a Ki of 0.0229 nM. In data set [2], the “influence upon blood pressure” value is “without exerting influence upon blood pressure”, the side effects entry is on record as “hardly shows side effects” and the “treatment of urinary outlet obstruction associated with benign prostatic hyperplasia” value is “useful in treating urinary outlet obstruction associated with benign prostatic hyperplasia”. For the same molecule, in data set [3] (setting [6]), the Ki was 0.871 nM.
As to `CCOc1ccccc1OCCN[C@@H](C)Cc1ccc(OC)c(S(N)(=O)=O)c1` [Compound B, S(+)-5-[2-[[2-(o-ethoxyphenoxy)ethyl]amino]propyl]-2-methoxybenzenesulfonamide], the inhibition constant Ki in data set [1] (setting [6]) was 0.347 nM; in data set [3], 105 nM.
For [³H] prazosin, the BMAX in data set [4] was found to be 240 ± 87 fmol/mg protein; in data set [5] it was 1673 ± 1203 fmol/mg protein.
